Key:
[1] = tested on: Verticillium dahliae microsclerotia and mycelia; details: added to growth media; cited from earlier work
Rhyzoctonia solani = test: In vitro growth of R. solani in PD broth, microtitre plate reader; type: cell-based; details: PD broth plus gluconic acid
Experimental: Glucose oxidase was examined in vitro for its ability to inhibit the growth of an Australian isolate of R. solani. Different concentrations of A. niger glucose oxidase suspended in potato dextrose broth and different amounts of filtrate from T. flavus 32908 and GOH-1 were inoculated with R. solani and fungal growth was monitored using a microtitre plate reader. Duplicates were performed for each experiment and the experiment was repeated twice. […] Growth inhibition curves for R. solani were calculated 26 hours after the start of fungal growth (FIG. 5). […] These values are approximately twice the glucose oxidase IC50 value determined for V. dahliae (2.2 μg/ml).

[2] = tested on: Talaromyces flavus glucose oxidase, wild type; details: T. flavus glucose oxidase; read-out: Km for β-D-glucose; cited from earlier work
[3] = biological target: Aspergillus niger glucose oxidase, wild type (Aspergillus niger, UniProt P13006); details: A. niger glucose oxidase; read-out: Km for β-D-glucose; cited from earlier work
Aspergillus niger glucose oxidase, wild type, sequence (P13006 17-605): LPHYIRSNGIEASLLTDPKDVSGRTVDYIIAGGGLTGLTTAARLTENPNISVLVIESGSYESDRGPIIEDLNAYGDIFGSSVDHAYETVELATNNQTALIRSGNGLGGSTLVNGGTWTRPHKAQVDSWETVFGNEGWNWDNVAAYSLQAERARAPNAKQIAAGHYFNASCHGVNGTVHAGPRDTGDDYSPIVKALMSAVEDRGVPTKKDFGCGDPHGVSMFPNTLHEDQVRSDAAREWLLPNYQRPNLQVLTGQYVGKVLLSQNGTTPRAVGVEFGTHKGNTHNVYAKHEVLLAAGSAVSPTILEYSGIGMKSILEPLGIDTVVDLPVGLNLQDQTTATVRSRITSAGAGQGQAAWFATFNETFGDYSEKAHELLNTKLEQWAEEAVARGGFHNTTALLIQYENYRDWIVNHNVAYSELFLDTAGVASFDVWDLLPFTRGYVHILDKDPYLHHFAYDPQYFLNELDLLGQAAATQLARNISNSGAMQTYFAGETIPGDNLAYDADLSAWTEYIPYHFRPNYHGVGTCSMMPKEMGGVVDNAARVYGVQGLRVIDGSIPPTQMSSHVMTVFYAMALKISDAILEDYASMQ

Structure (SMILES)	inhibition of microsclerotial germination and mycelial growth [1]	growth profile of R. solani compared with PD broth alone (Rhyzoctonia solani)	Km [2] [mM]	Km [3] [mM]
OO [hydrogen peroxide]	inhibited microsclerotial germination and mycelial growth	–	–	–
O=C(O)[C@H](O)[C@@H](O)[C@H](O)[C@H](O)CO [gluconic acid]	did not cause inhibition	very similar	–	–
OC[C@H]1O[C@@H](O)[C@H](O)[C@@H](O)[C@@H]1O [β-D-glucose]	–	–	10.9	27
O=C[C@H](O)[C@@H](O)[C@H](O)[C@H](O)CO [glucose]	did not cause inhibition	–	–	–

— US6054318A, “Expression of the glucose oxidase gene in transgenic organisms” (Commonwealth Scientific And Industrial Research Organization, priority 1994, dated 2000)
